Measured values published in PubChem BioAssay AID254 (DTP/NCI, 2004).
“And” between values parts separate entries of the source, which are not always exact repeats. Equal values may be shown once. Toxic doses and inconclusive results are not listed.

System: L1210 leukemia iv in BDF1 mice, survival T/C
Assay: NCI In Vivo Anticancer Drug Screen. Data for tumor model L1210 Leukemia (intravenous) in B6D2F1 (BDF1) mice
Settings: higher = longer survival
Protocol: The antitumor activity of compounds was measured in mice bearing transplantable tumors. Survival or tumor size were measured and the results are expressed as the measurement made in the treated group (T) divided by the measurement made in the vehicle treated control group (C). The tumor model used in this assay is L1210 Leukemia (intravenous) in B6D2F1 (BDF1) mice

Nc1nc(=S)c2[nH]cnc2[nH]1
T/C (endpoint: mean survival time, dose: 0.4 mg/kg/injection, schedule: Q01DX008 (ip), vehicle: alkali diluted with saline): 107 % of control | T/C (endpoint: mean survival time, dose: 0.4 mg/kg/injection, schedule: Q06HX008 (ip), vehicle: alkali diluted with saline): 117 % of control | T/C (endpoint: mean survival time, dose: 0.4 mg/kg/injection, schedule: Q12HX008 (ip), vehicle: alkali diluted with saline): 114 % of control | T/C (endpoint: mean survival time, dose: 0.6 mg/kg/injection, schedule: Q01DX008 (ip), vehicle: alkali diluted with saline): 114 % of control | T/C (endpoint: mean survival time, dose: 0.6 mg/kg/injection, schedule: Q01HX008 (ip), vehicle: alkali diluted with saline): 152 % of control | T/C (endpoint: mean survival time, dose: 4.8 mg/kg/injection, schedule: Q01DX001 (ip), vehicle: alkali diluted with saline): 156 % of control | T/C (endpoint: mean survival time, dose: 115.0 mg/kg/injection, schedule: Q01DX001 (ip), vehicle: alkali diluted with saline): 195 % of control | T/C (endpoint: median survival time, dose: 20.0 mg/kg/injection, schedule: Q04DX002 (ip), vehicle: alkali diluted with saline): 206 % of control and 227 % of control | T/C (endpoint: median survival time, dose: 25.0 mg/kg/injection, schedule: Q04DX002 (ip), vehicle: alkali diluted with saline): 198 % of control and 231 % of control

NC(=O)c1csc(C2OC(CO)C(O)C2O)n1 (stereo not drawn)
T/C (endpoint: median survival time, dose: 330.0 mg/kg/injection, schedule: Q01DX009 (ip), vehicle: water): 241 % of control | T/C (endpoint: median survival time, dose: 500.0 mg/kg/injection, schedule: Q01DX009 (ip), vehicle: water): 265 % of control | T/C (endpoint: median survival time, dose: 750.0 mg/kg/injection, schedule: Q01DX009 (ip), vehicle: water): 268 % of control

O=NN(CCF)C(=O)NC1CSCSC1
T/C (endpoint: mean survival time, dose: 3.7 mg/kg/injection, schedule: Q01DX001 (ip), vehicle: other): 124 % of control | T/C (endpoint: mean survival time, dose: 7.0 mg/kg/injection, schedule: Q01DX001 (ip), vehicle: other): 186 % of control and 204 % of control | T/C (endpoint: mean survival time, dose: 15.0 mg/kg/injection, schedule: Q01DX001 (ip), vehicle: other): 351 % of control and 417 % of control | T/C (endpoint: mean survival time, dose: 31.0 mg/kg/injection, schedule: Q01DX001 (ip), vehicle: other): 582 % of control and 744 % of control | T/C (endpoint: mean survival time, dose: 62.0 mg/kg/injection, schedule: Q01DX001 (ip), vehicle: other): 433 % of control and 846 % of control

O=NN(CCCl)C(=O)NC1CSCSC1
T/C (endpoint: mean survival time, dose: 2.0 mg/kg/injection, schedule: Q01DX001 (ip), vehicle: other): 106 % of control and 102 % of control | T/C (endpoint: mean survival time, dose: 4.0 mg/kg/injection, schedule: Q01DX001 (ip), vehicle: other): 109 % of control | T/C (endpoint: mean survival time, dose: 4.5 mg/kg/injection, schedule: Q04DX004 (ip), vehicle: saline with Tween-80): 293 % of control | T/C (endpoint: mean survival time, dose: 7.0 mg/kg/injection, schedule: Q04DX004 (ip), vehicle: saline with Tween-80): 443 % of control | T/C (endpoint: mean survival time, dose: 8.0 mg/kg/injection, schedule: Q01DX001 (ip), vehicle: other): 156 % of control and 161 % of control | T/C (endpoint: mean survival time, dose: 11.0 mg/kg/injection, schedule: Q04DX004 (ip), vehicle: saline with Tween-80): 735 % of control | T/C (endpoint: mean survival time, dose: 16.5 mg/kg/injection, schedule: Q01DX001 (ip), vehicle: other): 393 % of control and 311 % of control | T/C (endpoint: mean survival time, dose: 16.5 mg/kg/injection, schedule: Q04DX004 (ip), vehicle: saline with Tween-80): 1060 % of control | T/C (endpoint: mean survival time, dose: 33.0 mg/kg/injection, schedule: Q01DX001 (ip), vehicle: other): 490 % of control and 588 % of control

CC[C@]1(O)C[C@H]2CN(CCc3c([nH]c4ccccc34)[C@@](C(=O)OC)(c3cc4c(cc3OC)N(C=O)[C@H]3[C@@](O)(C(=O)OC)[C@H](OC(C)=O)[C@]5(CC)C=CCN6CC[C@]43[C@@H]65)C2)C1
T/C (endpoint: mean survival time, dose: 0.32 mg/kg/injection, schedule: Q01DX001 (ip), vehicle: saline): 112 % of control | T/C (endpoint: mean survival time, dose: 0.75 mg/kg/injection, schedule: Q01DX001 (ip), vehicle: saline): 108 % of control | T/C (endpoint: mean survival time, dose: 1.5 mg/kg/injection, schedule: Q01DX001 (ip), vehicle: saline): 114 % of control | T/C (endpoint: mean survival time, dose: 1.6 mg/kg/injection, schedule: Q01DX001 (ip), vehicle: saline): 109 % of control | T/C (endpoint: mean survival time, dose: 2.25 mg/kg/injection, schedule: Q01DX001 (ip), vehicle: saline): 119 % of control

O=NN(CCCl)C(=O)NC1CCCCC1
T/C (endpoint: mean survival time, dose: 5.1 mg/kg/injection, schedule: Q01DX001 (ip), vehicle: carboxymethylcellulose (CMC)): 102 % of control | T/C (endpoint: mean survival time, dose: 10.0 mg/kg/injection, schedule: Q04DX004 (ip), vehicle: carboxymethylcellulose (CMC)): 124 % of control | T/C (endpoint: mean survival time, dose: 15.0 mg/kg/injection, schedule: Q01DX001 (ip), vehicle: Klucel (hydroxypropylcellulose) (HPC)): 170 % of control | T/C (endpoint: mean survival time, dose: 16.0 mg/kg/injection, schedule: Q04DX004 (ip), vehicle: carboxymethylcellulose (CMC)): 160 % of control | T/C (endpoint: mean survival time, dose: 16.6 mg/kg/injection, schedule: Q01DX001 (ip), vehicle: carboxymethylcellulose (CMC)): 163 % of control and 174 % of control | T/C (endpoint: mean survival time, dose: 17.0 mg/kg/injection, schedule: Q01DX001 (ip), vehicle: carboxymethylcellulose (CMC)): 176 % of control | T/C (endpoint: mean survival time, dose: 18.0 mg/kg/injection, schedule: Q01DX001 (ip), vehicle: Klucel (hydroxypropylcellulose) (HPC)): 177 % of control | T/C (endpoint: mean survival time, dose: 21.0 mg/kg/injection, schedule: Q01DX001 (ip), vehicle: carboxymethylcellulose (CMC)): 218 % of control and 241 % of control | T/C (endpoint: mean survival time, dose: 22.0 mg/kg/injection, schedule: Q01DX001 (ip), vehicle: Klucel (hydroxypropylcellulose) (HPC)): 227 % of control | T/C (endpoint: mean survival time, dose: 22.0 mg/kg/injection, schedule: Q01DX001 (ip), vehicle: carboxymethylcellulose (CMC)): 192 % of control and 225 % of control | T/C (endpoint: mean survival time, dose: 22.0 mg/kg/injection, schedule: Q04DX004 (ip), vehicle: carboxymethylcellulose (CMC)): 360 % of control | T/C (endpoint: mean survival time, dose: 27.0 mg/kg/injection, schedule: Q01DX001 (ip), vehicle: Klucel (hydroxypropylcellulose) (HPC)): 161 % of control | T/C (endpoint: mean survival time, dose: 30.0 mg/kg/injection, schedule: Q01DX001 (ip), vehicle: carboxymethylcellulose (CMC)): 346 % of control | T/C (endpoint: mean survival time, dose: 33.0 mg/kg/injection, schedule: Q04DX004 (ip), vehicle: carboxymethylcellulose (CMC)): 709 % of control | T/C (endpoint: mean survival time, dose: 33.5 mg/kg/injection, schedule: Q01DX001 (ip), vehicle: Klucel (hydroxypropylcellulose) (HPC)): 574 % of control | T/C (endpoint: mean survival time, dose: 37.5 mg/kg/injection, schedule: Q01DX001 (ip), vehicle: carboxymethylcellulose (CMC)): 534 % of control and 560 % of control and 606 % of control | T/C (endpoint: mean survival time, dose: 40.0 mg/kg/injection, schedule: Q01DX001 (ip), vehicle: Klucel (hydroxypropylcellulose) (HPC)): 222 % of control | T/C (endpoint: mean survival time, dose: 40.0 mg/kg/injection, schedule: Q01DX001 (ip), vehicle: carboxymethylcellulose (CMC)): 368 % of control | T/C (endpoint: mean survival time, dose: 42.0 mg/kg/injection, schedule: Q01DX001 (ip), vehicle: Klucel (hydroxypropylcellulose) (HPC)): 438 % of control | T/C (endpoint: mean survival time, dose: 43.0 mg/kg/injection, schedule: Q01DX001 (ip), vehicle: carboxymethylcellulose (CMC)): 633 % of control and 707 % of control | T/C (endpoint: mean survival time, dose: 50.0 mg/kg/injection, schedule: Q01DX001 (ip), vehicle: Klucel (hydroxypropylcellulose) (HPC)): 407 % of control | T/C (endpoint: mean survival time, dose: 56.0 mg/kg/injection, schedule: Q01DX001 (ip), vehicle: Klucel (hydroxypropylcellulose) (HPC)): 464 % of control | T/C (endpoint: mean survival time, dose: 60.0 mg/kg/injection, schedule: Q01DX001 (ip), vehicle: Klucel (hydroxypropylcellulose) (HPC)): 336 % of control | T/C (endpoint: mean survival time, dose: 62.5 mg/kg/injection, schedule: Q01DX001 (ip), vehicle: carboxymethylcellulose (CMC)): 652 % of control and 662 % of control and 775 % of control | T/C (endpoint: mean survival time, dose: 70.0 mg/kg/injection, schedule: Q01DX001 (ip), vehicle: Klucel (hydroxypropylcellulose) (HPC)): 519 % of control | T/C (endpoint: mean survival time, dose: 75.0 mg/kg/injection, schedule: Q01DX001 (ip), vehicle: carboxymethylcellulose (CMC)): 826 % of control | T/C (endpoint: mean survival time, dose: 86.0 mg/kg/injection, schedule: Q01DX001 (ip), vehicle: carboxymethylcellulose (CMC)): 242 % of control and 297 % of control | T/C (endpoint: mean survival time, dose: 90.0 mg/kg/injection, schedule: Q01DX001 (ip), vehicle: Klucel (hydroxypropylcellulose) (HPC)): 522 % of control

O=NN(CCF)C(=O)NCCCl
T/C (endpoint: mean survival time, dose: 9.0 mg/kg/injection, schedule: Q01DX001 (ip), vehicle: Klucel (hydroxypropylcellulose) (HPC)): 197 % of control and 294 % of control | T/C (endpoint: mean survival time, dose: 14.0 mg/kg/injection, schedule: Q01DX001 (ip), vehicle: Klucel (hydroxypropylcellulose) (HPC)): 226 % of control and 270 % of control | T/C (endpoint: mean survival time, dose: 21.0 mg/kg/injection, schedule: Q01DX001 (ip), vehicle: Klucel (hydroxypropylcellulose) (HPC)): 342 % of control and 307 % of control | T/C (endpoint: mean survival time, dose: 32.0 mg/kg/injection, schedule: Q01DX001 (ip), vehicle: Klucel (hydroxypropylcellulose) (HPC)): 603 % of control and 323 % of control

COc1cccc2c1C(=O)c1c(O)c3c(c(O)c1C2=O)C[C@@](O)(C(C)=O)C[C@@H]3OC1CC(N)C(O)C(C)O1 (stereo partly drawn)
T/C (endpoint: mean survival time, dose: 3.0 mg/kg/injection, schedule: Q04DX003 (iv), vehicle: water): 216 % of control | T/C (endpoint: mean survival time, dose: 5.0 mg/kg/injection, schedule: Q01DX001 (iv), vehicle: saline): 105 % of control | T/C (endpoint: mean survival time, dose: 5.0 mg/kg/injection, schedule: Q04DX003 (iv), vehicle: water): 121 % of control | T/C (endpoint: mean survival time, dose: 10.0 mg/kg/injection, schedule: Q01DX001 (iv), vehicle: saline): 115 % of control | T/C (endpoint: mean survival time, dose: 14.0 mg/kg/injection, schedule: Q04DX003 (iv), vehicle: water): 160 % of control | T/C (endpoint: mean survival time, dose: 20.0 mg/kg/injection, schedule: Q01DX001 (iv), vehicle: saline): 150 % of control | T/C (endpoint: mean survival time, dose: 23.0 mg/kg/injection, schedule: Q04DX003 (iv), vehicle: water): 84 % of control

CCCCc1ccc2nc(NC(=O)OC)[nH]c2c1
T/C (endpoint: median survival time, dose: 30.0 mg/kg/injection, schedule: Q04DX003 (iv), vehicle: saline): 100 % of control | T/C (endpoint: median survival time, dose: 40.0 mg/kg/injection, schedule: Q04DX003 (iv), vehicle: saline): 110 % of control | T/C (endpoint: median survival time, dose: 50.0 mg/kg/injection, schedule: Q04DX003 (iv), vehicle: saline): 113 % of control
